Measurements published in ChEMBL document CHEMBL4649994.
Where “and” joins values, the source holds several entries; their conditions need not be identical. Equal entries are not always repeated.

Key:
Settings in all cases: Compound concentration 10.0 uM, Protein concentration 2.0 uM
[1] = molecular target: Bromodomain-containing protein 2 (Homo sapiens) (UniProt P25440)
[2] = molecular target: SWI/SNF-related matrix-associated actin-dependent regulator of chromatin subfamily A member 4 (Homo sapiens) (UniProt P51532)
[3] = molecular target: Histone acetyltransferase KAT2B (Homo sapiens) (UniProt Q92831)
Sequence of Histone acetyltransferase KAT2B (Homo sapiens) (Q92831 whole entry, looked up, the tested form may be a part): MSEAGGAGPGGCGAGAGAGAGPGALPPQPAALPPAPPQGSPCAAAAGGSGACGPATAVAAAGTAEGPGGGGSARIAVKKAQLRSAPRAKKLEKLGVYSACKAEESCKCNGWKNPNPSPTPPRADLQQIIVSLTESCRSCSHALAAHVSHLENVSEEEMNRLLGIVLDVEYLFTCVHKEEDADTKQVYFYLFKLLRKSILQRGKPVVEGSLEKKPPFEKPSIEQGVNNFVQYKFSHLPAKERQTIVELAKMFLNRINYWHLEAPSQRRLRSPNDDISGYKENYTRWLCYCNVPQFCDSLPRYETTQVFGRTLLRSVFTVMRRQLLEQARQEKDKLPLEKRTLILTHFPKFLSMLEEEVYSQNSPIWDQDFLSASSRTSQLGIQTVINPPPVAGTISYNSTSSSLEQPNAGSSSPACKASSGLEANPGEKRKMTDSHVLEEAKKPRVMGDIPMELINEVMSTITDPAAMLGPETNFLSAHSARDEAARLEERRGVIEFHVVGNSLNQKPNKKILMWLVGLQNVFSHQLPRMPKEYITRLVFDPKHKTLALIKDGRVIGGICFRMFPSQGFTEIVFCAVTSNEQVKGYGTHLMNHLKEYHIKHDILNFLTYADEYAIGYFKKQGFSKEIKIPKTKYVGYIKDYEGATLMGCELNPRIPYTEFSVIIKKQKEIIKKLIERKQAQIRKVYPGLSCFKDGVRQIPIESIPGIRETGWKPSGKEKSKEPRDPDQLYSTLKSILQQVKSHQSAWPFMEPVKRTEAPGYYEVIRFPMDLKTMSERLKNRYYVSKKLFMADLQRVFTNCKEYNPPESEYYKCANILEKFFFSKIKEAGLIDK

[4] = molecular target: Bromodomain adjacent to zinc finger domain protein 2A (Homo sapiens) (UniProt Q9UIF9)
[5] = molecular target: Protein polybromo-1 (Homo sapiens) (UniProt Q86U86); test: Thermal Shift Assay. Domain start/stop: R487-D598
Sequence of Protein polybromo-1 (Homo sapiens) (Q86U86 whole entry): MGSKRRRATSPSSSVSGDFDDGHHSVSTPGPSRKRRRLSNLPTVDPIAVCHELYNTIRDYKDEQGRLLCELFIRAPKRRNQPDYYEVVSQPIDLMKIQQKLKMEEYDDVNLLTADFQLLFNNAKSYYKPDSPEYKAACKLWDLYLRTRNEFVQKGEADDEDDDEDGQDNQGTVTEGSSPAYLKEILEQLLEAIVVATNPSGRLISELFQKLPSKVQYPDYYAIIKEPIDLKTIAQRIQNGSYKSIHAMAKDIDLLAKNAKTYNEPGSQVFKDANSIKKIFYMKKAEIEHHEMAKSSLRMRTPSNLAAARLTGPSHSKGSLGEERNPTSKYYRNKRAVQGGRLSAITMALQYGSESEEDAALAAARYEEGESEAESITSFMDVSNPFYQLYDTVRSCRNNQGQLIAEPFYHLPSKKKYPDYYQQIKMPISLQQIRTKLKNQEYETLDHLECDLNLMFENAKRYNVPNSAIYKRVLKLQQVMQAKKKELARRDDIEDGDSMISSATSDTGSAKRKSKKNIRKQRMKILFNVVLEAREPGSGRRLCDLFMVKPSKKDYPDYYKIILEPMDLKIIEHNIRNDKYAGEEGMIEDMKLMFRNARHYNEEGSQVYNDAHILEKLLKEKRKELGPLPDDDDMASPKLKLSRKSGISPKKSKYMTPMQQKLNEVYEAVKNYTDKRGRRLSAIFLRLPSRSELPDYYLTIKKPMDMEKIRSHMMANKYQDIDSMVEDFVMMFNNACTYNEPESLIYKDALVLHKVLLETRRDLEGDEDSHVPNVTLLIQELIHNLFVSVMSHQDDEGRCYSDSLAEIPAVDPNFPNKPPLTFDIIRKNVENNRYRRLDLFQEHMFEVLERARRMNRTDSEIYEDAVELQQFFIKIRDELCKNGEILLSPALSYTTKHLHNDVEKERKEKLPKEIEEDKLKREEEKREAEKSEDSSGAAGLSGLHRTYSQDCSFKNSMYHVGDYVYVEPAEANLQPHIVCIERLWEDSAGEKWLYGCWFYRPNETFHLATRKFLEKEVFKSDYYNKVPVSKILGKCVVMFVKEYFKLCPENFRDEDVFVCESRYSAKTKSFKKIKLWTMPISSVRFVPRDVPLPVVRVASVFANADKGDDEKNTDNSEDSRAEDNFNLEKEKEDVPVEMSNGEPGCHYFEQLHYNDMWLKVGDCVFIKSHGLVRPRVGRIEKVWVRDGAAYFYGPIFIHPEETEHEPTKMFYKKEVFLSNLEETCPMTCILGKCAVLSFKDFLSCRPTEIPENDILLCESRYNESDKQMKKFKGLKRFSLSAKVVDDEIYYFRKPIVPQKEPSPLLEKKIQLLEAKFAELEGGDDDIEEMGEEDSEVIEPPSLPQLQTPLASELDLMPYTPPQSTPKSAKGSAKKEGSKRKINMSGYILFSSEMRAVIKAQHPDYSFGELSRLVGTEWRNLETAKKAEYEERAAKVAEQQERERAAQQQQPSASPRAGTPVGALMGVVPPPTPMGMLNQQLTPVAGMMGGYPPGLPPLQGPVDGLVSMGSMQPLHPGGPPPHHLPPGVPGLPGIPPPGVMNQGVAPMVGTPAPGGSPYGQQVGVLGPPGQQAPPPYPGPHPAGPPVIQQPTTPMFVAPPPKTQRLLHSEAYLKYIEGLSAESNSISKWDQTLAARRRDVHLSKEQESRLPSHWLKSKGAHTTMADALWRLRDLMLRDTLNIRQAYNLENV

[6] = molecular target: Protein polybromo-1 (Homo sapiens) (UniProt Q86U86)
[7] = molecular target: Nuclear body protein SP140-like protein (Homo sapiens) (UniProt Q9H930)
[8] = molecular target: ATPase family AAA domain-containing protein 2 (Homo sapiens) (UniProt Q6PL18)
[9] = molecular target: CREB-binding protein (Homo sapiens) (UniProt Q92793)
[10] = molecular target: Protein polybromo-1 (Homo sapiens) (UniProt Q86U86); remark: listed apart in the source
[11] = molecular target: Histone acetyltransferase KAT2A (Homo sapiens) (UniProt Q92830)
[12] = molecular target: Bromodomain and WD repeat-containing protein 3 (Homo sapiens) (UniProt Q6RI45)
[13] = molecular target: Transcription intermediary factor 1-alpha (Homo sapiens) (UniProt O15164)
[14] = molecular target: Bromodomain adjacent to zinc finger domain protein 2B (Homo sapiens) (UniProt Q9UIF8)
[15] = molecular target: Peregrin (Homo sapiens) (UniProt P55201)
[16] = molecular target: Protein polybromo-1 (Homo sapiens) (UniProt Q86U86); remark: listed apart in the source
[17] = molecular target: Nuclear body protein SP140 (Homo sapiens) (UniProt Q13342)
[18] = molecular target: Bromodomain-containing protein 3 (Homo sapiens) (UniProt Q15059); test: Thermal Shift Assay. Domain start/stop: P24-E144
Sequence of Bromodomain-containing protein 3 (Homo sapiens) (Q15059 2-726 limits assumed): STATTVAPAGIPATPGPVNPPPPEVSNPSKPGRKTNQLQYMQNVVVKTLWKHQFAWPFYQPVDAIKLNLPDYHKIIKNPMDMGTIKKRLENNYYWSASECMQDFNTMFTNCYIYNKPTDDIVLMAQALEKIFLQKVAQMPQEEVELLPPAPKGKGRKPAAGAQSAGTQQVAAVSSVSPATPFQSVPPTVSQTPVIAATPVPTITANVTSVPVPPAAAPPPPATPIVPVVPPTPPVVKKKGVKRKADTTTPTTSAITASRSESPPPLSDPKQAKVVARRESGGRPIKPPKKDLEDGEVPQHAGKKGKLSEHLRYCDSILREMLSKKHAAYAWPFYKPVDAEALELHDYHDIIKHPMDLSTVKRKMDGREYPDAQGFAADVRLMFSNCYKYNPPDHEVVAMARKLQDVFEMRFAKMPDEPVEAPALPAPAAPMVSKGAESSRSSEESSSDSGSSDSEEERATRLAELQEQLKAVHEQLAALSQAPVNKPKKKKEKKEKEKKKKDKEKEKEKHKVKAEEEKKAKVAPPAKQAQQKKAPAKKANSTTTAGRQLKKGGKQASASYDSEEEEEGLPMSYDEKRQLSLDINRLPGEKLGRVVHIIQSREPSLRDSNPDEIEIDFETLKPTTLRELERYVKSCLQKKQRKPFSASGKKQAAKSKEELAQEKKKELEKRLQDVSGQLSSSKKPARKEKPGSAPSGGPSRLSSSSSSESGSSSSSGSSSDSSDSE

[19] = molecular target: Bromodomain adjacent to zinc finger domain protein 1A (Homo sapiens) (UniProt Q9NRL2)
[20] = molecular target: Transcription intermediary factor 1-beta (Homo sapiens) (UniProt Q13263)
[21] = molecular target: Chromatin remodeling regulator CECR2 (Homo sapiens) (UniProt Q9BXF3)
[22] = molecular target: SWI/SNF-related matrix-associated actin-dependent regulator of chromatin subfamily A member 2 (Homo sapiens) (UniProt P51531)
[23] = molecular target: Histone-lysine N-methyltransferase ASH1L (Homo sapiens) (UniProt Q9NR48)
[24] = molecular target: Histone acetyltransferase p300 (Homo sapiens) (UniProt Q09472)
[25] = molecular target: Peregrin (Homo sapiens) (UniProt P55201); remark: listed apart in the source
[26] = molecular target: Bromodomain testis-specific protein (Homo sapiens) (UniProt Q58F21)
[27] = molecular target: Transcription initiation factor TFIID subunit 1-like (Homo sapiens) (UniProt Q8IZX4)
[28] = molecular target: Bromodomain-containing protein 2 (Homo sapiens) (UniProt P25440); remark: listed apart in the source
[29] = molecular target: ATPase family AAA domain-containing protein 2B (Homo sapiens) (UniProt Q9ULI0)
[30] = molecular target: Bromodomain-containing protein 1 (Homo sapiens) (UniProt O95696)
Sequence of Bromodomain-containing protein 1 (Homo sapiens) (O95696 whole entry): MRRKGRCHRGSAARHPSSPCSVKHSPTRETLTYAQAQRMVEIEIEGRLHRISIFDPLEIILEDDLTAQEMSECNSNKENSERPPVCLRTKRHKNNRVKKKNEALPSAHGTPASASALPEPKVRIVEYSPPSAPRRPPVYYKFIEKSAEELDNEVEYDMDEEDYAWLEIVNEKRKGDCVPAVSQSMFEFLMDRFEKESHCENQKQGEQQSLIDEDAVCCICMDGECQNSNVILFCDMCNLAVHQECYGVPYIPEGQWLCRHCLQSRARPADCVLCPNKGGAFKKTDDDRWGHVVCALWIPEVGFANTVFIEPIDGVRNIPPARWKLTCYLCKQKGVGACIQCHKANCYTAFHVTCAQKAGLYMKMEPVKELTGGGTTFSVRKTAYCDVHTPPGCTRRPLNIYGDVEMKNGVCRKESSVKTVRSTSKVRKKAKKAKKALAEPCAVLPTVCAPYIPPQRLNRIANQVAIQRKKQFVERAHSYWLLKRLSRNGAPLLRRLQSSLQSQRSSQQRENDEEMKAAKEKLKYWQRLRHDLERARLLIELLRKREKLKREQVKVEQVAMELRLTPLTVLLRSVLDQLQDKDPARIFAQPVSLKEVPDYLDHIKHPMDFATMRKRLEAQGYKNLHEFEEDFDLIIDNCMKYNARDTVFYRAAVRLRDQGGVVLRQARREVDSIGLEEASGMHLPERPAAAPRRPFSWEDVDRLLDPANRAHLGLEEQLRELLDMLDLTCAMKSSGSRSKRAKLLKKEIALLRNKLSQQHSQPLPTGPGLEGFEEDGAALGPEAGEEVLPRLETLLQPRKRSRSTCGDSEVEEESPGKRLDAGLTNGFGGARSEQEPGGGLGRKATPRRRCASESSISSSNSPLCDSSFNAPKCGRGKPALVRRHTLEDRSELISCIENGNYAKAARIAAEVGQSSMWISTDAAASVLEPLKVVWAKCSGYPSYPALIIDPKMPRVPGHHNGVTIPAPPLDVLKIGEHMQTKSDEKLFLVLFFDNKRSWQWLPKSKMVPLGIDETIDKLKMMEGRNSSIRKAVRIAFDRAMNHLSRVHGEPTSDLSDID

[31] = molecular target: Nucleosome-remodeling factor subunit BPTF (Homo sapiens) (UniProt Q12830)
[32] = molecular target: Protein polybromo-1 (Homo sapiens) (UniProt Q86U86); remark: listed apart in the source
[33] = molecular target: Bromodomain and PHD finger-containing protein 3 (Homo sapiens) (UniProt Q9ULD4)
[34] = molecular target: Protein polybromo-1 (Homo sapiens) (UniProt Q86U86); test: Thermal Shift Assay. Domain start/stop: H23-D159
[35] = molecular target: Transcription initiation factor TFIID subunit 1 (Homo sapiens) (UniProt P21675)
[36] = molecular target: Tripartite motif-containing protein 66 (Homo sapiens) (UniProt O15016); test: Thermal Shift Assay. Domain start/stop: M1091-S1218
[37] = molecular target: Bromodomain-containing protein 9 (Homo sapiens) (UniProt Q9H8M2)
[38] = molecular target: Transcription initiation factor TFIID subunit 1-like (Homo sapiens) (UniProt Q8IZX4); remark: listed apart in the source
[39] = molecular target: Bromodomain-containing protein 3 (Homo sapiens) (UniProt Q15059)
[40] = molecular target: PH-interacting protein (Homo sapiens) (UniProt Q8WWQ0)
[41] = molecular target: Transcription initiation factor TFIID subunit 1 (Homo sapiens) (UniProt P21675); remark: listed apart in the source

Sequence of Bromodomain-containing protein 2 (Homo sapiens) (P25440 whole entry, looked up, the tested form may be a part): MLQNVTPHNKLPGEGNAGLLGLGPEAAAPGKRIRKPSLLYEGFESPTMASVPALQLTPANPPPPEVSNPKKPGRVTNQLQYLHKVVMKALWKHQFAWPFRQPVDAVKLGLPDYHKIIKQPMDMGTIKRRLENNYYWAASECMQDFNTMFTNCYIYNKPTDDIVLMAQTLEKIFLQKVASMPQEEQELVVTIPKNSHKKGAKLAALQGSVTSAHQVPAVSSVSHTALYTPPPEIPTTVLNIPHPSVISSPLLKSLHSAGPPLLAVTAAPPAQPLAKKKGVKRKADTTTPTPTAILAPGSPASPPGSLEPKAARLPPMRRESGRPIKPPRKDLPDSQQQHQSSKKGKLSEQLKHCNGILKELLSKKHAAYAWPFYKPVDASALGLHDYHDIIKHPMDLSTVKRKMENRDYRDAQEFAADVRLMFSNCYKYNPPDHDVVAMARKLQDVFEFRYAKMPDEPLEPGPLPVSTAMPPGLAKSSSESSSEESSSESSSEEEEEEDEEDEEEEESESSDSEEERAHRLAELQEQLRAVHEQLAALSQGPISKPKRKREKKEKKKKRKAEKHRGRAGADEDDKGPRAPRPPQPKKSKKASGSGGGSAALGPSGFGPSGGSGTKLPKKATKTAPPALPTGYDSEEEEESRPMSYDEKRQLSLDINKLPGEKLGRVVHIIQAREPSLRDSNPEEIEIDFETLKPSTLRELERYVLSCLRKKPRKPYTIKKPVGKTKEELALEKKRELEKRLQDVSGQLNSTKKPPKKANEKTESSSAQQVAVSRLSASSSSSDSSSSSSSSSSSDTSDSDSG

COc1ccccc1S(=O)(=O)Nc1ccc2c(c1)CN(C)C(=O)N2 was tested, and the ΔTm [1] was 5.32 °C, the ΔTm [2] was 0.51 °C and the ΔTm [3] was -0.1 °C and 0.81 °C. It also gave a ΔTm [4] of 1.02 °C, a ΔTm [5] of 1.03 °C and a ΔTm [6] of -0.18 °C. For the same molecule, the ΔTm [7] was 0.12 °C, the ΔTm [8] was 0.71 °C and the ΔTm [9] was 2.09 °C and 2.66 °C. For the same molecule, the ΔTm [10] was 0.99 °C, the ΔTm [11] was 0.43 °C and the ΔTm [12] was 0.16 °C. The ΔTm [13] was 0.57 °C, the ΔTm [14] was 0.66 °C and 0.25 °C and the ΔTm [15] was 2.42 °C. The ΔTm [16] was 0.83 °C and -0.18 °C, the ΔTm [17] was 0.1 °C and the ΔTm [18] was 3.99 °C and 5.24 °C. The ΔTm [19] was 1.62 °C, the ΔTm [20] was 0.29 °C and the ΔTm [21] was -0.22 °C. The ΔTm [22] was 0.49 °C, the ΔTm [23] was -0.34 °C and the ΔTm [24] was 2.71 °C. The ΔTm [25] was 0.68 °C, the ΔTm [26] was 2.08 °C and the ΔTm [27] was 0.52 °C. The ΔTm [28] was 4.61 °C and 3.1 °C, the ΔTm [29] was 0.1 °C and the ΔTm [30] was 1.19 °C and 0.62 °C. For the same molecule, the ΔTm [31] was 0.44 °C, the ΔTm [32] was 0.62 °C and the ΔTm [33] was 1.72 °C. The ΔTm [34] was 0.75 °C, the ΔTm [35] was -0.08 °C and the ΔTm [36] was 0.42 °C. For the same molecule, the ΔTm [37] was 1.96 °C, the ΔTm [38] was 0.78 °C and the ΔTm [39] was 4.59 °C and 5.45 °C. The ΔTm [40] was 1.07 °C and the ΔTm [41] was 0.62 °C.
